Measured values: paper PMC8113468, “Sugar transporters enable a leaf beetle to accumulate plant defense compounds” (Nature Communications, 2021)

Assays:
Type in all cases: cell-based
PaGTR3 = target: T1, PaGTR3 (Phyllotreta armoraciae, UniProt A0A858Z6Y2); assay: uptake into transfected High Five insect cells, LC-MS/MS; settings: equimolar mixture of seven glucosinolates, 200 µM, PBS pH 5.5, 1 h, 27 °C
T1 construct: gene GTR3; full-length ORF in pIEx-4, C-terminal 6xHis tag, expressed in High Five insect cells
T1 sequence (A0A858Z6Y2 1-478): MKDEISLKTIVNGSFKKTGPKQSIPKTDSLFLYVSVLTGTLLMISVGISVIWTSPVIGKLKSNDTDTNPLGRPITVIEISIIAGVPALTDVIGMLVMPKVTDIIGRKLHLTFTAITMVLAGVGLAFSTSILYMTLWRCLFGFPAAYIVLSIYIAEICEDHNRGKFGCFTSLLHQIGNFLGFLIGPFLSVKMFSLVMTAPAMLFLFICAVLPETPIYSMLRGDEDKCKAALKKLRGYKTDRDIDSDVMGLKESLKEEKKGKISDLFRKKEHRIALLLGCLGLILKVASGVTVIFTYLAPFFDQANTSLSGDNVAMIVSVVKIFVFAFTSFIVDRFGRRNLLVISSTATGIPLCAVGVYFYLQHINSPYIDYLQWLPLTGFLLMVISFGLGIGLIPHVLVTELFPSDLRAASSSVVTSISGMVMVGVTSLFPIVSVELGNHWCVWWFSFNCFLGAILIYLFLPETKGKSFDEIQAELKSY

PaGTR1 = target: T2, PaGTR1 (Phyllotreta armoraciae, UniProt A0A858Z6R5); assay: uptake into PaGTR1-expressing Xenopus oocytes, LC-MS/MS; settings: Kulori buffer with MES pH 6.0, 10 min, room temperature; proton-dependent import; read-out: apparent Km
T2 construct: gene GTR1; full-length ORF without stop codon in pNB1u, C-terminal HA tag, cRNA expressed in Xenopus laevis oocytes
T2 sequence (A0A858Z6R5 entry or part of it): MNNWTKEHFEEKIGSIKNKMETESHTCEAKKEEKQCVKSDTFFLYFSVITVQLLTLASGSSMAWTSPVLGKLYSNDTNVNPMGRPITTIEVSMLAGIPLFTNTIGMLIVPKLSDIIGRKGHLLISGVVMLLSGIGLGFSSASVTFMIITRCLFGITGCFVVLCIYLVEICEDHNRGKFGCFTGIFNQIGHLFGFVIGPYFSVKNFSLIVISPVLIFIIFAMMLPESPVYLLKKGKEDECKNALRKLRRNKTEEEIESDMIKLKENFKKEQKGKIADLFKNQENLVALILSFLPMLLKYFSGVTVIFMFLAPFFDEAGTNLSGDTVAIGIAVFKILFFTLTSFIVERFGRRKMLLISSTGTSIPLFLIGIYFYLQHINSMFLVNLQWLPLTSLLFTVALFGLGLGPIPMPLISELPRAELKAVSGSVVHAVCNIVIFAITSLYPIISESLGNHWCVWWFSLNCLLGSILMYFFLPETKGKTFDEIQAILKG

PaGTR2 = target: T3, PaGTR2 (Phyllotreta armoraciae, UniProt A0A858Z6M7); assay: uptake into transfected High Five insect cells, LC-MS/MS; settings: equimolar mixture of seven glucosinolates, 200 µM, PBS pH 5.5, 1 h, 27 °C
T3 construct: gene GTR2; full-length ORF in pIEx-4, C-terminal 6xHis tag, expressed in High Five insect cells
T3 sequence (A0A858Z6M7 1-504): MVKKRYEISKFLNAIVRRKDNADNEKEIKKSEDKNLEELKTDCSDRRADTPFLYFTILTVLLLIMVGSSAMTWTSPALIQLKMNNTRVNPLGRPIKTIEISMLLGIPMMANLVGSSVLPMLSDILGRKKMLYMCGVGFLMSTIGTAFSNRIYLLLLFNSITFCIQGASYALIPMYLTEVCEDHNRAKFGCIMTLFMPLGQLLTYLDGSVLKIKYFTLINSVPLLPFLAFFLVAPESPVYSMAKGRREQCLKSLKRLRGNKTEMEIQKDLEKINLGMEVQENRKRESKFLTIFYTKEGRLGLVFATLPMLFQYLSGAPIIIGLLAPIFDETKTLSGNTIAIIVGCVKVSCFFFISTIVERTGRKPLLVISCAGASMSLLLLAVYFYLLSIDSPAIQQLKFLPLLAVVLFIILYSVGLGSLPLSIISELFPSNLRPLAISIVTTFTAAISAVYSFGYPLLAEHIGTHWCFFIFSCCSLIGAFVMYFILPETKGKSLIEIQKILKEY

- Km (PaGTR1): 50.6 ± 4.1 µM
SMILES: O=S(=O)(O)O/N=C(/Cc1c[nH]c2ccccc12)S[C@@H]1O[C@H](CO)[C@@H](O)[C@H](O)[C@H]1O [I3M glucosinolate]
- uptake into transfected High Five insect cells, LC-MS/MS (PaGTR3): PaGTR2 and PaGTR3 expression was analyzed because the recombinant transporters also used I3M glucosinolate
- uptake into transfected High Five insect cells, LC-MS/MS (PaGTR2): PaGTR2 and PaGTR3 expression was analyzed because the recombinant transporters also used I3M glucosinolate
